From patent US20090239846A1, “Novel Compounds” (Glaxo Group Limited, priority 2005, published 2009)
Where a name gives a salt, the structure may show the parent alone. Read-outs that look alike come from different tables or passages of the source.

Assays:
[1] = system: influx of neutrophils to the lung in LPS-challenged rats; experiment: Rat LPS neutrophilia model; format: in vivo; details: LPS aerosol, lavage 4 hours later, in at least one of the range of conditions tested, significance p<0.05
Procedure, shortened: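 Rats pretreated 15 min–24 h with compound or vehicle, given intratracheally (200 ul, isoflurane anaesthesia) as suspension in various vehicles, then exposed to LPS aerosol (100 ug/ml) 15 min. BAL 4 h later; Diffquick-stained differential counts give % inhibition of neutrophils versus no-compound controls at a set concentration and pretreatment time.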

Recombinant human p38α = target: T1, Recombinant human p38α (Homo sapiens, UniProt Q16539); experiment: Fluorescence anisotropy kinase binding assay (standard or low volume); details: for active in the assay (pIC50, p38α binding): 12 nM p38α, 5 nM fluorescent ligand
T1 construct: GST; made in house
T1 sequence (Q16539 whole entry): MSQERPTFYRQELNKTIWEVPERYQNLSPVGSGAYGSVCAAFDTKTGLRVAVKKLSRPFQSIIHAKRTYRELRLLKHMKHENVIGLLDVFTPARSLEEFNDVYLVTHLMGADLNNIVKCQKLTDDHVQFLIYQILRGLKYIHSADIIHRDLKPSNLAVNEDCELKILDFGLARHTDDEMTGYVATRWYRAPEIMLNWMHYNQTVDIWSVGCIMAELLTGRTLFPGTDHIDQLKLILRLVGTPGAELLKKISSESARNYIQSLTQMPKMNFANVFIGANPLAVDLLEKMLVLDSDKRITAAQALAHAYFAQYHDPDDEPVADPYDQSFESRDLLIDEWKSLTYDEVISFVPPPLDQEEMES
Procedure, shortened: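 Activated GST-tagged recombinant human p38α (pre-activated with MBP-MKK6 DD) at 12 nM final with 5 nM rhodamine green-labelled pyridinylimidazole tracer in pH 7.5 HEPES/CHAPS/DTT/MgCl2 buffer. Test compound 0.28 nM–16.6 μM or 0.02 nM–25 μM final, 3% or 1.7% DMSO; 30–60 min at room temperature. Fluorescence anisotropy read (ex 485/em 535 nm) for Ki.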

[2] = system: IL-8 production by human neutrophils; experiment: TNF-stimulated IL-8 production from human neutrophils; format: cell-based; details: Neutrophil, bound, not more than 50% inhibition at 100 nM, read-out: IC50
Description: TNF-Stimulated IL-8 Production from Human Neutrophils The effect of test compounds on TNF-stimulated IL8 production by human neutrophils is measured as follows. Neutrophils are prepared from blood obtained from consenting donors, using standard methods. Blood is collected in heparinized syringes and layered over histopaque (30 ml/20 ml). Following centrifugation, the red cell pellet is resuspended in PBS and purified over a dextran gradient. Red blood cells are lysed with water for 40 sec, remaining granulocytes collected by centrifugation and resuspended at 1.5×10̂6 cells/ml. Cells are added (0.5-1 ml) to 48 well plates already containing compound at 1000×final concentration in neat DMSO or 10% DMSO in RPMI1640 with 10% FBS. TNF (final concentration 100 ng/ml) is used as the stimulus. Cells incubated for approximately 20 hrs at 37° C., 5% CO2. Levels of IL-8 in the cell free supernatant are determined by sandwich ELISA, and inhibition relative to a control with DMPO but no compound is calculated.

TNFalpha = experiment: LPS-stimulated cytokine production in human whole blood; format: cell-based
Description: Assay: Test compound concentrations were prepared at 10× concentrations and LPS prepared at 1 ug/ml (final conc. of 50 ng/ml LPS) and added in 50 uL volumes to 1.5 mL eppendorf tubes. Heparinized human whole blood was obtained from healthy volunteers and was dispensed into eppendorf tubes or multiwell plates containing compounds and LPS in 0.2-0.4 mL volumes and the tubes incubated at 37 C. In some studies, compound was incubated with blood for up to 30 min prior to addition of LPS. Following a 4 hour incubation, the tubes or plates were centrifuged to remove cells and plasma was withdrawn and frozen at −80 C. Cytokine measurement: IL-1beta and/or TNFalpha were quantified using a standardized ELISA, or similar technology. Concentrations of IL-1beta or TNFalpha were determined from standard curves of the appropriate cytokine and IC50 values for test compound (concentration that inhibited 50% of LPS-stimulated cytokine production) were calculated by linear regression analysis.

[3] = LPS-stimulated TNF-alpha, bound, read-out: IC50
[4] = bound, read-out: apparent pIC50 (converted)

active in the assay (pIC50, p38α binding) (Recombinant human p38α)	melting point	IC50 [2]	IC50 (TNFalpha; [3])	Compound	also measured
active	159 to 162 °C	> 100 nM	–	Cc1ccc(C(=O)N(C)C)cc1-c1nc(N2CCN(C)CC2)nc2c1CNC(=O)N2c1c(F)cccc1F [149(c), 3-[8-(2,6-difluorophenyl)-2-(4-methyl-1-piperazinyl)-7-oxo-5,6,7,8-tetrahydropyrimido[4,5-d]pyrimidin-4-yl]-N,N,4-trimethylbenzamide]	–
active	125 to 127 °C	> 100 nM	–	CCN(CC)C(=O)c1ccc(C)c(-c2nc(NCCN(C)C)nc3c2CNC(=O)N3c2c(F)cccc2F)c1 [156(c), 3-(8-(2,6-difluorophenyl)-2-{[2-(dimethylamino)ethyl]amino}-7-oxo-5,6,7,8-tetrahydropyrimido[4,5-d]pyrimidin-4-yl)-N,N-diethyl-4-methylbenzamide]	–
active	–	–	> 1000 nM	CNC(=O)c1ccc(C)c(-c2nc(S(C)(=O)=O)nc3c2CNC(=O)N3c2c(F)cccc2F)c1 [163(b), 3-[8-(2,6-difluorophenyl)-2-(methylsulfonyl)-7-oxo-5,6,7,8-tetrahydropyrimido[4,5-d]pyrimidin-4-yl]-N,4-dimethylbenzamide]	–
–	–	–	> 1000 nM	Cc1ccc(C(=O)NC(C)C)cc1-c1nc(N2CCCCCC2)nc2c1CNC(=O)N2c1c(F)cccc1F [Example 66, 3-[8-(2,6-difluorophenyl)-2-(hexahydro-1H-azepin-1-yl)-7-oxo-5,6,7,8-tetrahydropyrimido[4,5-d]pyrimidin-4-yl]-4-methyl-N-(1-methylethyl)benzamide]	–
–	–	–	> 1000 nM	Cc1ccc(C(=O)NC(C)C)cc1-c1nc(N2CCCC2)nc2c1CNC(=O)N2c1c(F)cccc1F [Example 67, 3-[8-(2,6-difluorophenyl)-7-oxo-2-(1-pyrrolidinyl)-5,6,7,8-tetrahydropyrimido[4,5-d]pyrimidin-4-yl]-4-methyl-N-(1-methylethyl)benzamide]	–
–	–	–	> 1000 nM	Cc1ccc(C(=O)NC(C)C)cc1-c1nc(N2CCOCC2)nc2c1CNC(=O)N2c1c(F)cccc1F [Example 68, 3-[8-(2,6-difluorophenyl)-2-(4-morpholinyl)-7-oxo-5,6,7,8-tetrahydropyrimido[4,5-d]pyrimidin-4-yl]-4-methyl-N-(1-methylethyl)benzamide trifluoroacetate]	–
–	–	–	> 1000 nM	Cc1ccc(C(=O)NC(C)C)cc1-c1nc(N2CCC(n3c(=O)[nH]c4cc(Cl)ccc43)CC2)nc2c1CNC(=O)N2c1c(F)cccc1F [Example 73, 3-[2-[4-(5-chloro-2-oxo-2,3-dihydro-1H-benzimidazol-1-yl)-1-piperidinyl]-8-(2,6-difluorophenyl)-7-oxo-5,6,7,8-tetrahydropyrimido[4,5-d]pyrimidin-4-yl]-4-methyl-N-(1-methylethyl)benzamide trifluoroacetate]	–
–	–	–	–	Cc1c(F)cc(C(=O)NC(C)C)cc1-c1nc(NCCN(C)C)nc2c1CNC(=O)N2c1c(F)cccc1F [Example 111(c), 3-(8-(2,6-difluorophenyl)-2-{[2-(dimethylamino)ethyl]amino}-7-oxo-5,6,7,8-tetrahydropyrimido[4,5-d]pyrimidin-4-yl)-5-fluoro-4-methyl-N-(1-methylethyl)benzamide]	IC50 (TNFalpha; upper end printed as greater than 0.1 uM, read-out: IC50, range of data upon multiple runs): 40 to 100 nM
–	–	–	> 1000 nM	Cc1ccc(C(=O)NC[C@@H](C)O)cc1-c1nc(NCCN(C)C)nc2c1CNC(=O)N2c1c(F)cccc1F [Example 128, 3-(8-(2,6-difluorophenyl)-2-{[2-(dimethylamino)ethyl]amino}-7-oxo-5,6,7,8-tetrahydropyrimido[4,5-d]pyrimidin-4-yl)-N-[(2R)-2-hydroxypropyl]-4-methylbenzamide]	–
–	–	–	> 1000 nM	Cc1ccc(C(=O)NC[C@H](C)O)cc1-c1nc(NCCN(C)C)nc2c1CNC(=O)N2c1c(F)cccc1F [Example 129, 3-(8-(2,6-difluorophenyl)-2-{[2-(dimethylamino)ethyl]amino}-7-oxo-5,6,7,8-tetrahydropyrimido[4,5-d]pyrimidin-4-yl)-N-[(2S)-2-hydroxypropyl]-4-methylbenzamide]	–
–	–	–	> 1000 nM	CCc1ccc(C(=O)O)cc1-c1nc(NCCN(C)C)nc2c1CNC(=O)N2c1c(F)cccc1F [Example 141, 3-(8-(2,6-difluorophenyl)-2-{[2-(dimethylamino)ethyl]amino}-7-oxo-5,6,7,8-tetrahydropyrimido[4,5-d]pyrimidin-4-yl)-4-ethylbenzoic acid]	IC50 (Recombinant human p38α; second end given as 'less than', read-out: pIC50, broad range of data upon multiple runs (converted)): ≥ 1260 nM
–	–	–	> 1000 nM	CCc1ccc(C(=O)Nc2ccc(F)c(F)c2)cc1-c1nc(NCCN(C)C)nc2c1CNC(=O)N2c1c(F)cccc1F [Example 143, N-(3,4-difluorophenyl)-3-(8-(2,6-difluorophenyl)-2-{[2-(dimethylamino)-ethyl]amino}-7-oxo-5,6,7,8-tetrahydropyrimido[4,5-d]pyrimidin-4-yl)-4-ethylbenzamide trifluoroacetate]	–
–	138 to 142 °C	> 100 nM	–	Cc1ccc(C(=O)N(C)C)cc1-c1nc(NCCN(C)C)nc2c1CNC(=O)N2c1c(F)cccc1F [Example 152]	–
–	130 to 133 °C	> 100 nM	–	Cc1ccc(C(=O)N(C)C)cc1-c1nc(NCCNC(C)C)nc2c1CNC(=O)N2c1c(F)cccc1F [Example 153, 3-[8-(2,6-difluorophenyl)-2-({2-[(1-methylethyl)amino]ethyl}amino)-7-oxo-5,6,7,8-tetrahydropyrimido[4,5-d]pyrimidin-4-yl]-N,N,4-trimethylbenzamide]	IC50 (Recombinant human p38α; [4]): > 15800 nM
active	114 to 118 °C	> 100 nM	–	Cc1ccc(C(=O)N(C)C)cc1-c1nc(N(C)CCCN(C)C)nc2c1CNC(=O)N2c1c(F)cccc1F [Example 154, 3-{8-(2,6-difluorophenyl)-2-[[3-(dimethylamino)propyl](methyl)amino]-7-oxo-5,6,7,8-tetrahydropyrimido[4,5-d]pyrimidin-4-yl}-N,N,4-trimethylbenzamide]	–
active	163 to 165 °C	> 100 nM	–	Cc1ccc(C(=O)N(C)C)cc1-c1nc(NC2CCN(C)CC2)nc2c1CNC(=O)N2c1c(F)cccc1F [Example 155, 3-{8-(2,6-difluorophenyl)-2-[(1-methyl-4-piperidinyl)amino]-7-oxo-5,6,7,8-tetrahydropyrimido[4,5-d]-pyrimidin-4-yl}N,N,4-trimethylbenzamide]	–
–	165 to 169 °C	> 100 nM	–	CCN(CC)C(=O)c1ccc(C)c(-c2nc(NC3CCN(C)CC3)nc3c2CNC(=O)N3c2c(F)cccc2F)c1 [Example 159, 3-{8-(2,6-difluorophenyl)-2-[(1-methyl-4-piperidinyl)amino]-7-oxo-5,6,7,8-tetrahydropyrimido[4,5-dl-pyrimidin-4-yl}-N,N-diethyl-4-methylbenzamide]	–
–	89 to 91 °C	> 100 nM	–	CCN(CC)C(=O)c1ccc(C)c(-c2nc(NCCNC(C)C)nc3c2CNC(=O)N3c2c(F)cccc2F)c1 [Example 160, 3-[8-(2,6-difluorophenyl)-2-({2-[(1-methylethyl)amino]ethyl}amino)-7-oxo-5,6,7,8-tetrahydropyrimido[4,5-d]pyrimidin-4-yl]-N,N-diethyl-4-methylbenzamide]	IC50 (Recombinant human p38α; [4]): > 15800 nM
–	–	–	> 1000 nM	Cc1ccc(C(=O)Nc2cccc(S(N)(=O)=O)c2)cc1-c1nc(NCCN(C)C)nc2c1CNC(=O)N2c1c(F)cccc1F [Example 226, N-[3-(aminosulfonyl)phenyl]-3-(8-(2,6-difluorophenyl)-2-{[2-(dimethylamino)-ethyl]amino}-7-oxo-5,6,7,8-tetrahydropyrimido[4,5-d]pyrimidin-4-yl)-4-methylbenzamide]	–

Compound	active in the assay (pIC50, p38α binding) (Recombinant human p38α)	melting point	IC50 [2]	IC50 (TNFalpha; [3])	also measured
Cc1ccc(C(=O)Nc2ccc(C)c(-c3nc(NC4CC(C)(C)NC(C)(C)C4)nc4c3CNC(=O)N4c3c(F)cccc3F)c2)cc1F [23(e), N-(3-{8-(2,6-difluorophenyl)-7-oxo-2-[(2,2,6,6-tetramethyl-4-piperidinyl)amino]-5,6,7,8-tetrahydropyrimido[4,5-d]pyrimidin-4-yl}-4-methylphenyl)-3-fluoro-4-methylbenzamide]	active	220 °C (dec.)	–	–	inhibition of neutrophilia [1]: statistically nonsignificant inhibition of neutrophilia
Cc1ccc(C(=O)Nc2ccc(C)c(-c3nc(N(C)C)nc4c3CNC(=O)N4c3c(F)cccc3F)c2)cc1F [Example 28, N-{3-[8-(2,6-difluorophenyl)-2-(dimethylamino)-7-oxo-5,6,7,8-tetrahydropyrimido[4,5-d]pyrimidin-4-yl]-4-methylphenyl}-3-fluoro-4-methylbenzamide]	active	257.8 to 264.3 °C	–	–	inhibition of neutrophilia [1]: statistically nonsignificant inhibition of neutrophilia
CNC(=O)c1ccc(C)c(-c2nc(N3CCC(N4CCCCC4)CC3)nc3c2CNC(=O)N3c2c(F)cccc2F)c1 [Example 176, 3-[2-(1,4′-bipiperidin-1′-yl)-8-(2,6-difluorophenyl)-7-oxo-5,6,7,8-tetrahydropyrimido[4,5-d]pyrimidin-4-yl]-N,4-dimethylbenzamide]	–	179 to 184 °C (dec.)	–	–	inhibition of neutrophilia [1]: statistically nonsignificant inhibition of neutrophilia
